According to patent US9611301B2, “GB virus C (hepatitis G virus) E2 glycoprotein as an immunomodulatory agent” (priority 2012, dated 2017):
Where no end group is shown, it is not given here.

Assays:
Healthy donors PBMCs = assay: IL-2 production by PBMCs incubated with synthetic TAT peptides, anti-CD3/CD28 stimulation; assay type: cell-based, human; conditions: 20 μg peptide over night, anti-CD3/CD28 500 ng/ml, 24 hrs
Excerpt: pLAT (Y191) was quantified using PathScan ELISA kit (Cell Signaling Technology) and IL-2 cytokine released into cell culture supernatant was quantified using human IL-2 quantikine ELISA kit (R&D Systems) according to manufacturer's instructions.
(§1) FITC labelled synthetic peptides with an N-terminal HIV TAT protein transduction domain (TAT) alone (GGGGGRKKRRQRRR; SEQ ID NO: 13), or with the GBV-C E2 aa 86-101 ([…]; SEQ ID NO: 14; Y87), or the Y87H mutation ([…]; SEQ ID NO: 15) were obtained from Ana Spec, Inc. Peptides with the TAT domain and GBV-C E2 aa 276-292 (GGAGLTGGRYEPLVRRC; SEQ ID NO: 16), or the same amino acids in a scrambled order (GCRCARGVLLTPGEGYF; SEQ ID NO: 17) as previously described^28. Peptides were dissolved in RPMI with 10% DMSO. The TAT domain enhances cellular uptake of the peptide. Healthy donors PBMCs (1×10^6 cells/ml) were incubated with 20 μg peptide at 37° C. over night before stimulation with 500 ng/ml anti-CD3/CD28. IL-2 release and cellular receptor expression was analyzed 24 hrs later.

[1] = test system: primary human CD4+ and CD8+ T cells; assay: CD69 and CD25 surface expression on CD4+ and CD8+ T cells incubated with synthetic TAT peptides; assay type: cell-based; conditions: compared to mutant or control peptide
Protocol: Cellular receptor expression was measured using the following antibodies per manufacturer's recommendation: CD69 (PE), CD25 (APC), CD45 (PE) (BD Biosciences). Cells were incubated on ice for 1 hour, washed 3 times with PBS and fixed in 2% paraformaldehyde (Polysciences). Data was acquired on BD LSR II flow cytometer using single stained CompBeads (BD Biosciences) for compensation. At least 10,000 total events were collected in each experiment and the FlowJo program (Tree Star Inc.) was used for data analysis. All flow cytometry experiments were repeated at least three times with consistent results.
as §1

Lck = target: T1, Lck (Homo sapiens, UniProt P06239); assay: Lck mediated phosphorylation of TAT-peptides (Lck kinase enzyme system); assay type: biochemical; conditions: in vitro
T1 construct: purchased Promega
T1 sequence (P06239 whole entry, species assumed): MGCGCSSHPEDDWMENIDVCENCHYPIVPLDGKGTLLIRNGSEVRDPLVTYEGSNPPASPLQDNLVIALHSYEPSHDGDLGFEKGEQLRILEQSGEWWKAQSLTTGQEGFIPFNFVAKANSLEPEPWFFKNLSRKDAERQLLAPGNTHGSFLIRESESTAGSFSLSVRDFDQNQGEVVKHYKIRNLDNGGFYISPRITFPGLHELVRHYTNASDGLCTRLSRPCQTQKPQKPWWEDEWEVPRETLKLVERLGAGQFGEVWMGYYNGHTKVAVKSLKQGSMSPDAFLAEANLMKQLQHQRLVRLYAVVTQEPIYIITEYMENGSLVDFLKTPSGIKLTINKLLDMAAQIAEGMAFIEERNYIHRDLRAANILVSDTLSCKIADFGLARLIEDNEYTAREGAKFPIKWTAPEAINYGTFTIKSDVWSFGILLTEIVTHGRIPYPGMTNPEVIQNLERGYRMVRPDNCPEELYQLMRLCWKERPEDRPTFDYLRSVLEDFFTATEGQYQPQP
Protocol: CD45 activity was measured using CD45 tyrosine phosphatase assay kit (Enzo Life Sciences) following the manufacturer's instructions. Purified recombinant GBV-C E2 protein expressed in CHO cells was described previouslyl^2. Enzymatic activity was evaluated with or without GBV-C E2 protein (10 μg) or human IgG control (10 μg; Sigma) at room temperature. Following 1 hour incubation, the reaction was terminated and absorbance determined by a Microplate reader (Model 680, Bio-Rad) at OD620nm. Phosphorylation of GBV-C E2 protein by Lck was measured by incubating recombinant E2 protein (40 μg) with or without human Lck ([…]; R&D Systems) as recommended by the manufacturer. Samples were subjected to immunoblot analysis as described above. Phosphorylation was determined by immunoblot analysis with phosphotyrosine antibodies (Invitrogen) and GBV-C E2 protein was identified using an anti-E2 monoclonal antibody. Lck mediated phosphorylation of GBV-C E2 derived TAT-peptides were performed using Lck kinase enzyme system (Promega) as recommended by the manufacturer.

| Sequence | IL-2 production (Healthy donors PBMCs) | surface expression of CD25 [1] | surface expression of CD69 [1] | Lck mediated phosphorylation of peptide (Lck substrate) (Lck) |
| --- | --- | --- | --- | --- |
| GGGGGRKKRRQRRRVHGSVSVTCVWGS (also: FITC label, site not given here) [TAT-Y87H, TAT peptide with the Y87H mutation] | not |  |  |  |
| GGGGGRKKRRQRRRVYGSVSVTCVWGS (also: FITC label, site not given here) [TAT-Y87, synthetic peptide, N-terminal HIV TAT protein transduction domain with GBV-C E2 aa 86-101] | inhibited | significantly reduced | significantly reduced | phosphorylated by Lck in a dose-dependent manner |
| GGAGLTGGRYEPLVRRC [TAT-276-292] |  |  |  | served as a Lck substrate in vitro |
| GGGGGRKKRRQRRR (also: FITC label, site not given here) [TAT control, HIV TAT protein transduction domain alone; negative control, reference compound] | not |  |  |  |
